Assay results published in patent US10597388B2, “Pyridazinone herbicides” (FMC CORPORATION, priority 2014, dated 2020).

Assays:
Assay in all cases: Test D controlled growth environment herbicide test, pre- and postemergence
Format in all cases: in vivo
[1] = test system: bluegrass (annual bluegrass, Poa annua)
Summary of the method: (§1)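 Rating is visual, 0–100 scale (100 = complete control), made against untreated plants 14–21 d after treatment in controlled growth conditions. Postemergence sprays went onto 1- to 4-leaf plants in peat medium; preemergence sprays onto silt loam after sowing; formulation included a surfactant.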

[2] = test system: field violet (Viola arvensis)
Summary of the method: as §1

[3] = test system: barley, winter (winter barley, Hordeum vulgare)
Summary of the method: as §1

[4] = test system: galium (catchweed bedstraw, Galium aparine)
Summary of the method: as §1

[5] = test system: chamomile (scentless chamomile, Matricaria inodora)
Summary of the method: as §1

[6] = test system: blackgrass (Alopecurus myosuroides)
Summary of the method: as §1

[7] = test system: foxtail, green (green foxtail, Setaria viridis)
Summary of the method: as §1

[8] = test system: lambsquarters (Chenopodium album)
Summary of the method: as §1

[9] = test system: bromegrass, downy (downy bromegrass, Bromus tectorum)
Summary of the method: as §1

[10] = test system: wheat, winter (winter wheat, Triticum aestivum)
Summary of the method: as §1

[11] = test system: chickweed (common chickweed, Stellaria media)
Summary of the method: as §1

[12] = test system: pigweed (Amaranthus retroflexus)
Summary of the method: as §1

kochia (Kochia scoparia) = test system: kochia (Kochia scoparia)
Summary of the method: as §1

[13] = Postemergence, 31 g ai/ha, scale 0 to 100 (0 no effect, 100 complete control)
[14] = Postemergence, 125 g ai/ha, visual rating on scale 0 (no effect) to 100 (complete control), 14 to 21 d
[15] = Postemergence, 250 g ai/ha, scale 0 to 100 (0 no effect, 100 complete control)
[16] = Preemergence, 62 g ai/ha, scale 0 to 100 (0 no effect, 100 complete control)
[17] = Preemergence, 125 g ai/ha, scale 0 to 100 (0 no effect, 100 complete control)
[18] = Preemergence, 250 g ai/ha, scale 0 to 100, 0 no effect, 100 complete control
[19] = postemergence, 62 g ai/ha, scale 0 to 100, 0 no effect, 100 complete control

Cc1nn(C)c(=O)c(-c2c(C)sc3c(C)cc(Cl)cc23)c1O [Compound 35]
Bluegrass plant response rating [1, 13]: 35
Plant response rating, Bluegrass [1, 14]: 35
Plant response rating, Bluegrass [1, 15]: 40
Plant response rating (scale of 0 to 100), Bluegrass ([1]; Preemergence, 31 g ai/ha): 25
Plant response rating, Bluegrass [1, 16]: 25
Plant response rating, Bluegrass [1, 17]: 35
Bluegrass plant response rating [1, 18]: 45
Plant response rating, Bluegrass [1, 19]: 25
Field Violet plant response rating [2, 13]: 65
Plant response rating, Field Violet [2, 14]: 75
Plant response rating, Field Violet [2, 15]: 98
Plant response rating (scale of 0 to 100), Field Violet ([2]; Preemergence, 31 g ai/ha): 15
Plant response rating, Field Violet [2, 16]: 75
Plant response rating, Field Violet [2, 17]: 85
Plant response rating, Field Violet [2, 18]: 100
Plant response rating, Field Violet [2, 19]: 75
Plant response rating, Barley, Winter [3, 13]: 0
Plant response rating, Barley, Winter [3, 14]: 0
Plant response rating, Barley, Winter [3, 15]: 15
Plant response rating (scale of 0 to 100), Barley, Winter ([3]; Preemergence, 31 g ai/ha): 0
Plant response rating, Barley, Winter [3, 16]: 0
Plant response rating, Barley, Winter [3, 17]: 0
Barley, Winter plant response rating [3, 18]: 0
Plant response rating, Barley, Winter [3, 19]: 0
Galium plant response rating [4, 13]: 98
Plant response rating, Galium [4, 14]: 95
Plant response rating, Galium [4, 15]: 100
Plant response rating (scale of 0 to 100), Galium ([4]; Preemergence, 31 g ai/ha): 80
Plant response rating, Galium [4, 16]: 85
Plant response rating, Galium [4, 17]: 95
Plant response rating, Galium [4, 18]: 100
Plant response rating, Galium [4, 19]: 98
Chamomile plant response rating [5, 13]: 100
Plant response rating, Chamomile [5, 14]: 100
Plant response rating, Chamomile [5, 15]: 100
Plant response rating (scale of 0 to 100), Chamomile ([5]; Preemergence, 31 g ai/ha): 100
Plant response rating, Chamomile [5, 16]: 100
Plant response rating, Chamomile [5, 17]: 100
Plant response rating, Chamomile [5, 18]: 100
Plant response rating, Chamomile [5, 19]: 100
Blackgrass plant response rating [6, 13]: 30
Plant response rating, Blackgrass [6, 14]: 75
Plant response rating, Blackgrass [6, 15]: 85
Plant response rating (scale of 0 to 100), Blackgrass ([6]; Preemergence, 31 g ai/ha): 75
Plant response rating, Blackgrass [6, 16]: 85
Plant response rating, Blackgrass [6, 17]: 85
Blackgrass plant response rating [6, 18]: 95
Plant response rating, Blackgrass [6, 19]: 65
Foxtail, Green plant response rating [7, 13]: 75
Plant response rating, Foxtail, Green [7, 14]: 95
Plant response rating, Foxtail, Green [7, 15]: 95
Plant response rating (scale of 0 to 100), Foxtail, Green ([7]; Preemergence, 31 g ai/ha): 50
Plant response rating, Foxtail, Green [7, 16]: 45
Plant response rating, Foxtail, Green [7, 17]: 65
Plant response rating, Foxtail, Green [7, 18]: 100
Plant response rating, Foxtail, Green [7, 19]: 90
Lambsquarters plant response rating [8, 13]: 75
Plant response rating, Lambsquarters [8, 14]: 98
Plant response rating, Lambsquarters [8, 15]: 98
Plant response rating (scale of 0 to 100), Lambsquarters ([8]; Preemergence, 31 g ai/ha): 70
Plant response rating, Lambsquarters [8, 16]: 98
Plant response rating, Lambsquarters [8, 17]: 100
Plant response rating, Lambsquarters [8, 18]: 100
Plant response rating, Lambsquarters [8, 19]: 100
Bromegrass, Downy plant response rating [9, 13]: 5
Plant response rating, Bromegrass, Downy [9, 14]: 25
Plant response rating, Bromegrass, Downy [9, 15]: 30
Plant response rating (scale of 0 to 100), Bromegrass, Downy ([9]; Preemergence, 31 g ai/ha): 20
Plant response rating, Bromegrass, Downy [9, 16]: 30
Plant response rating, Bromegrass, Downy [9, 17]: 55
Plant response rating, Bromegrass, Downy [9, 18]: 65
Plant response rating, Bromegrass, Downy [9, 19]: 25
Wheat, Winter plant response rating [10, 13]: 10
Plant response rating, Wheat, Winter [10, 14]: 15
Plant response rating, Wheat, Winter [10, 15]: 20
Plant response rating (scale of 0 to 100), Wheat, Winter ([10]; Preemergence, 31 g ai/ha): 0
Plant response rating, Wheat, Winter [10, 16]: 0
Plant response rating, Wheat, Winter [10, 17]: 0
Plant response rating, Wheat, Winter [10, 18]: 10
Plant response rating, Wheat, Winter [10, 19]: 15
Chickweed plant response rating [11, 13]: 90
Plant response rating, Chickweed [11, 14]: 100
Plant response rating, Chickweed [11, 15]: 100
Plant response rating (scale of 0 to 100), Chickweed ([11]; Preemergence, 31 g ai/ha): 95
Plant response rating, Chickweed [11, 16]: 95
Plant response rating, Chickweed [11, 17]: 100
Plant response rating, Chickweed [11, 18]: 100
Plant response rating, Chickweed [11, 19]: 100
Pigweed plant response rating [12, 13]: 80
Plant response rating, Pigweed [12, 14]: 85
Plant response rating, Pigweed [12, 15]: 98
Plant response rating (scale of 0 to 100), Pigweed ([12]; Preemergence, 31 g ai/ha): 25
Plant response rating, Pigweed [12, 16]: 95
Plant response rating, Pigweed [12, 17]: 100
Plant response rating, Pigweed [12, 18]: 100
Plant response rating, Pigweed [12, 19]: 80
Kochia plant response rating (kochia (Kochia scoparia); [13]): 25
Plant response rating, Kochia (kochia (Kochia scoparia); [14]): 65
Plant response rating, Kochia (kochia (Kochia scoparia); [15]): 70
Plant response rating (scale of 0 to 100), Kochia (kochia (Kochia scoparia); Preemergence, 31 g ai/ha): 0
Plant response rating, Kochia (kochia (Kochia scoparia); [16]): 0
Plant response rating, Kochia (kochia (Kochia scoparia); [17]): 20
Plant response rating, Kochia (kochia (Kochia scoparia); [18]): 25
Plant response rating, Kochia (kochia (Kochia scoparia); [19]): 20
